Test results published in ChEMBL document CHEMBL1140606, “Green tea catechins inhibit bacterial DNA gyrase by interaction with its ATP binding site” (J Med Chem, 2007).
Converted amounts (≈) assume the structure as drawn. The source made the active and inactive calls. No cut-off for these calls is given here.

Columns and labels:
Escherichia coli [1] = assay: Displacement of picogreen from Escherichia coli DNA gyrase B
Escherichia coli [2] = assay: Displacement of ethidium bromide from Escherichia coli DNA gyrase B
Escherichia coli [3] = assay: (§1) Inhibition of Escherichia coli DNA gyrase B supercoiling activity
Escherichia coli [4] = assay: Inhibition of Escherichia coli DNA gyrase B ATPase activity
[5] = Displacement of fluorescent quercetin from Escherichia coli BL21 (DE3) recombinant DNA gyrase B G24
Escherichia coli [6] = assay: Antibacterial activity against Escherichia coli; assay type: functional
Escherichia coli [7] = assay: Inhibition of Escherichia coli DNA gyrase B supercoiling activity upto 100 uM
[8] = as §1

Structure (SMILES)	Activity (Escherichia coli [1])	Activity (Escherichia coli [2])	Activity (Escherichia coli [3])	Activity (Escherichia coli [4])	Kd [5] [µM]	MIC (Escherichia coli [6]) [µM]	Activity (Escherichia coli [7])	IC50 [8] [µM]
Oc1cc(O)c2c(c1)O[C@H](c1ccc(O)c(O)c1)[C@H](O)C2 [(-)-EPICATECHIN]	inactive	inactive	inactive	inactive	54	> 1000	inactive	–
O=C(O[C@@H]1Cc2c(O)cc(O)cc2O[C@@H]1c1ccc(O)c(O)c1)c1cc(O)c(O)c(O)c1 [EPICATECHIN GALLATE]	inactive	inactive	–	Active	36	25 (≈ 11.1 µg/mL)	–	50
Oc1cc(O)c2c(c1)O[C@H](c1cc(O)c(O)c(O)c1)[C@H](O)C2 [EPIGALLOCATECHIN]	inactive	inactive	–	Active	34	100 (≈ 30.6 µg/mL)	inactive	–
O=C(O[C@@H]1Cc2c(O)cc(O)cc2O[C@@H]1c1cc(O)c(O)c(O)c1)c1cc(O)c(O)c(O)c1 [EPIGALOCATECHIN GALLATE]	inactive	inactive	–	Active	23	10 (≈ 4.58 µg/mL)	–	50
O=c1c(O)c(-c2ccc(O)c(O)c2)oc2cc(O)cc(O)c12 [QUERCETIN]	–	–	–	–	15	–	–	–
